pEC50: −log10 of the molar value.
What was measured:
ZR-75-1 cells = assay: Caspase cascade activation (N-(Ac-DEVD)-N'-ethoxycarbonyl-R110 fluorogenic substrate) in ZR-75-1 cells; type: cell-based, Human; conditions: ZR-75-1, 48 h incubation; for pEC50: Homo sapiens, caspase activation potency; for ZR Ratio 48 hr: caspase activity: ratio of net RFU of test compound to control
Procedure, shortened: (§1)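 EC50 comes from sigmoidal fitting of the net RFU ratio over DMSO control, read at ex 485/em 530 nm 3 h after adding 14 μM Ac-DEVD-R110 in lysolecithin/DTT/PIPES pH 7.2 buffer. Compound (0.016-10 μM final) was applied to cells for 48 h at 37 °C beforehand.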

T-47D cells = assay: Caspase cascade activation (N-(Ac-DEVD)-N'-ethoxycarbonyl-R110 fluorogenic substrate) in T-47D cells; type: cell-based, Human; conditions: 48 h incubation; for pEC50: Homo sapiens, T47D, caspase activation potency, read-out: T47 EC50; for T47 Ratio 48 hr: caspase activity: ratio of net RFU of test compound to control
Procedure, shortened: as §1

For COc1ccc(Cl)cc1Nc1cc(C(F)(F)F)nc(-c2cccnc2)n1 [Example 180, 4-(5-Chloro-2-methoxyanilino)-2-(3-pyridinyl)-6-trifluoromethylpyrimidine], the pEC50 (ZR-75-1 cells) was 6.16, the “ZR Ratio 48 hr” value (ZR-75-1 cells) was 8.7 and the pEC50 (T-47D cells) was 6.20. The “T47 Ratio 48 hr” value (T-47D cells) was 15.1.
In the case of COc1cc(Nc2cc(C(F)(F)F)nc(-c3cnccn3)n2)cc(OC)c1 [Example 183, 4-(3,5-Dimethoxyanilino)-2-(2-pyrazinyl)-6-trifluoromethylpyrimidine], the pEC50 (ZR-75-1 cells) was 7.12, the “ZR Ratio 48 hr” value (ZR-75-1 cells) was 11.5 and the pEC50 (T-47D cells) was 7.09. The “T47 Ratio 48 hr” value (T-47D cells) was 17.3.
In the case of Cc1ccc(O)cc1Nc1cc(C(F)(F)F)nc(-c2ccccn2)n1 [Example 188, 4-(5-Hydroxy-2-methylanilino)-2-(2-pyridinyl)-6-trifluoromethylpyrimidine], the pEC50 (ZR-75-1 cells) was 6.57, the “ZR Ratio 48 hr” value (ZR-75-1 cells) was 9.3 and the pEC50 (T-47D cells) was 6.37. For the same compound, the “T47 Ratio 48 hr” value (T-47D cells) was 3.6.
For COc1ccc(C)cc1Nc1cc(C(F)(F)F)nc(-c2ccccn2)n1 [Example 190, 4-(2-Methoxy-5-methylanilino)-2-(2-pyridinyl)-6-trifluoromethylpyrimidine], the pEC50 (ZR-75-1 cells) was 7.49, the “ZR Ratio 48 hr” value (ZR-75-1 cells) was 16.7 and the pEC50 (T-47D cells) was 7.54. For the same compound, the “T47 Ratio 48 hr” value (T-47D cells) was 19.3.
For Oc1ccc(Cl)cc1Nc1cc(C(F)(F)F)nc(-c2cnccn2)n1 [Example 198, 4-(5-Chloro-2-hydroxyanilino)-2-(2-pyrazinyl)-6-trifluoromethylpyrimidine], the pEC50 (ZR-75-1 cells) was under 5.30, the “ZR Ratio 48 hr” value (ZR-75-1 cells) was 1.8 and the pEC50 (T-47D cells) was 6.38. The “T47 Ratio 48 hr” value (T-47D cells) was 3.3.
COc1ccc(OC)c(CCNc2cc(C(F)(F)F)nc(-c3cccnc3)n2)c1 [Example 200, 4-(2,5-Dimethoxyphenylethylamino)-2-(3-pyridinyl)-6-trifluoromethylpyrimidine] was tested, and the pEC50 (ZR-75-1 cells) was under 5.30, the “ZR Ratio 48 hr” value (ZR-75-1 cells) was 1.4 and the pEC50 (T-47D cells) was under 5.30. The “T47 Ratio 48 hr” value (T-47D cells) was 1.2.
For Cc1cc(Nc2cc(C(F)(F)F)nc(-c3cccnc3)n2)c(C)cc1O [Example 201, 4-(2,5-Dimethyl-4-hydroxyanilino)-2-(3-pyridinyl)-6-trifluoromethylpyrimidine], the pEC50 (ZR-75-1 cells) was 6.76, the “ZR Ratio 48 hr” value (ZR-75-1 cells) was 4.8 and the pEC50 (T-47D cells) was 6.48. The “T47 Ratio 48 hr” value (T-47D cells) was 15.7.
In the case of COc1cc(C#N)c(Nc2cc(C(F)(F)F)nc(-c3cccnc3)n2)cc1OC [Example 203, 4-(2-Cyano-4,5-dimethoxyanilino)-2-(3-pyridinyl)-6-trifluoromethylpyrimidine], the pEC50 (ZR-75-1 cells) was 5.58, the “ZR Ratio 48 hr” value (ZR-75-1 cells) was 3.4 and the pEC50 (T-47D cells) was 6.07. The “T47 Ratio 48 hr” value (T-47D cells) was 10.7.
With COc1ccc(Nc2cc(C(F)(F)F)nc(-c3cccnc3)n2)c(OC)n1 [Example 206, 4-(2,6-Dimethoxypyridin-3-ylamino)-2-(3-pyridinyl)-6-trifluoromethylpyrimidine] the pEC50 (ZR-75-1 cells) was 6.23, the “ZR Ratio 48 hr” value (ZR-75-1 cells) was 2.9 and the pEC50 (T-47D cells) was 6.10. For the same compound, the “T47 Ratio 48 hr” value (T-47D cells) was 6.9.
For FC(F)(F)c1cc(Nc2cccc3[nH]ccc23)nc(-c2ccccn2)n1 [Example 212, 4-(Indol-4-ylamino)-2-(2-pyridinyl)-6-trifluoromethylpyrimidine], the pEC50 (ZR-75-1 cells) was 5.56, the “ZR Ratio 48 hr” value (ZR-75-1 cells) was 6.1 and the pEC50 (T-47D cells) was 5.51. For the same compound, the “T47 Ratio 48 hr” value (T-47D cells) was 5.8.
In the case of Cc1cc2cc(Nc3cc(C(F)(F)F)nc(-c4cccnc4)n3)ccc2[nH]1 [Example 213, 4-(2-Methyl-indol-5-ylamino)-2-(3-pyridinyl)-6-trifluoromethylpyrimidine], the pEC50 (ZR-75-1 cells) was 5.75, the “ZR Ratio 48 hr” value (ZR-75-1 cells) was 9.9 and the pEC50 (T-47D cells) was 5.57. For the same compound, the “T47 Ratio 48 hr” value (T-47D cells) was 14.1.
